Patent US20070015823A1, “Ambruticin VS compounds” (priority 2004, published 2007)
Converted amounts (≈) assume the structure as drawn. Like-named read-outs stand apart in the source and are kept apart here.

Experiments:
C. posadasii = experiment: microbe, parasite or virus in culture; assay type: cell-based, Coccidioides posadasii; settings: for MIC: Coccidioides posadasii
C. immitis = experiment: microbe, parasite or virus in culture; assay type: cell-based, Coccidioides immitis; settings: for MIC: Coccidioides immitis
A. flavus ATCC 204304 = experiment: Broth microdilution antifungal susceptibility, NCCLS M38-A; assay type: cell-based, Aspergillus flavus; settings: minimal concentration inhibiting >95% growth; average of at least two assays (except I-l and I-x)
A. fumigatus ATCC 204305 = experiment: as above; assay type: cell-based, Aspergillus fumigatus; settings: minimal concentration inhibiting >95% growth; average of at least two assays (except I-l and I-x)
[1] = test system: Trichophyton mentagrophytes; experiment: Dermatophyte broth microdilution, NCCLS M38-A; assay type: cell-based
Microsporum gypseum = experiment: Dermatophyte broth microdilution, NCCLS M38-A; assay type: cell-based
[2] = test system: Trichophyton interdigitale; experiment: Dermatophyte broth microdilution, NCCLS M38-A; assay type: cell-based
Epidermophyton floccosum = experiment: Dermatophyte broth microdilution, NCCLS M38-A; assay type: cell-based
Trichophyton rubrum = experiment: Dermatophyte broth microdilution, NCCLS M38-A; assay type: cell-based
Microsporum canis = experiment: Dermatophyte broth microdilution, NCCLS M38-A; assay type: cell-based
Cryptococcus neoformans = experiment: Broth microdilution antifungal susceptibility, NCCLS M38-A; settings: 50% growth inhibition, range = minimum and maximum of multiple assays; for MIC C. neoformans 97-14: strain 97-14; for MIC C. neoformans 11239: strain 11239; for MIC C. neoformans 11240: strain 11240
Blastomyces dermatitidis = experiment: as above; assay type: cell-based
Histoplasma capsulatum = assay type: cell-based

| Structure (SMILES) | MIC0 A. flavus ATCC 204304 (A. flavus ATCC 204304) [µg/mL] | MIC0 A. fumigatus ATCC 204305 (A. fumigatus ATCC 204305) [µg/mL] | MIC0 Tm [1] [µg/mL] | MIC0 Mg (Microsporum gypseum) [µg/mL] | MIC0 Ti [2] [µg/mL] | MIC0 Ef (Epidermophyton floccosum) [µg/mL] | MIC0 Tr (Trichophyton rubrum) [µg/mL] | MIC0 Mc (Microsporum canis) [µg/mL] | MIC C. neoformans 97-14 (Cryptococcus neoformans) [µg/mL] | MIC C. neoformans 11239 (Cryptococcus neoformans) [µg/mL] | MIC C. neoformans 11240 (Cryptococcus neoformans) [µg/mL] | MIC B. dermatitidis Gu (Blastomyces dermatitidis) [µg/mL] | MIC B. dermatitidis Kr (Blastomyces dermatitidis) [µg/mL] | MIC B. dermatitidis V (Blastomyces dermatitidis) [µg/mL] | MIC H. capsulatum G217B (Histoplasma capsulatum) [µg/mL] | MIC H. capsulatum GS20 (Histoplasma capsulatum) [µg/mL] | further results |
| --- | --- | --- | --- | --- | --- | --- | --- | --- | --- | --- | --- | --- | --- | --- | --- | --- | --- |
| OC(Cn1cncn1)(Cn1cncn1)c1ccc(F)cc1F [Fluconazole] |  |  |  |  |  |  |  |  |  |  |  |  |  |  |  |  | MIC (C. posadasii; read-out: MIC C. posadasii C735): 16 µg/mL (≈ 52.2 µM); MIC (C. posadasii; read-out: MIC C. posadasii RMSCC 2127): 16 µg/mL (≈ 52.2 µM); MIC (C. posadasii; read-out: MIC C. posadasii Silveria): 4 µg/mL (≈ 13.1 µM); MIC (C. immitis; read-out: MIC C. immitis RMS 2281): 16 µg/mL (≈ 52.2 µM); MIC (C. immitis; read-out: MIC C. immitis RS): 16 µg/mL (≈ 52.2 µM); MIC (C. immitis; read-out: MIC C. immitis S46): 16 µg/mL (≈ 52.2 µM) |
| CC[C@H]1O[C@@H](/C(C)=C/[C@H](C)/C=C/[C@H]2[C@@H](C)[C@@H]2/C=C/[C@@H]2O[C@H](CC(=O)O)C[C@H](N(C)CC)[C@H]2O)CC=C1C [I-a, (5S,6R)-5-(N-ethyl-methylamino)-6-hydroxypolyangioic acid] | 2.0 | 2.0 | 5.65 | 2.51 | 2 | 4 | 2 | 1.41 | 1 (≈ 1.94 µM) | 2 (≈ 3.88 µM) | 2 (≈ 3.88 µM) |  |  |  |  |  |  |
| CC[C@H]1O[C@@H](/C(C)=C/[C@H](C)/C=C/[C@H]2[C@@H](C)[C@@H]2/C=C/[C@@H]2O[C@H](CC(=O)O)C[C@H](NC3CCCC3)[C@H]2O)CC=C1C [I-d, (5S,6R)-5-(cyclopentylamino)-6-hydroxypolyangioic acid] | 8.0 | 8.0 | 8 | 2.51 | 2.51 | 4 | 3.17 | 2.82 |  |  |  | >12.5 | >12.5 | >12.5 | <0.19 | <0.19 |  |
| CCOC(=O)O[C@H]1[C@H](/C=C/[C@H]2[C@H](C)[C@@H]2/C=C/[C@@H](C)/C=C(\C)[C@H]2CC=C(C)[C@@H](CC)O2)O[C@H](CC(N)=O)C[C@@H]1N(C)C [I-ii, (5S,6R)-5-(dimethylamino)-6-ethoxycarbonyloxy-polyangiamide] | 1 | 1 | 1.41 | 1 | 1.58 | 1 | 1.58 | 0.5 | 0.5 to 1 | 0.25 (≈ 0.436 µM) | 0.25 to 0.5 |  |  |  |  |  | MIC C. posadasii C735 (C. posadasii): 0.5 µg/mL (≈ 0.873 µM); MIC C. posadasii RMSCC 2127 (C. posadasii): 0.25 µg/mL (≈ 0.436 µM); MIC C. posadasii Silveria (C. posadasii): 0.5 µg/mL (≈ 0.873 µM); MIC C. immitis RMS 2281 (C. immitis): 0.125 µg/mL (≈ 0.218 µM); MIC C. immitis RS (C. immitis): 0.25 µg/mL (≈ 0.436 µM); MIC C. immitis S46 (C. immitis): 0.25 µg/mL (≈ 0.436 µM) |
| CC[C@H]1O[C@@H](/C(C)=C/[C@H](C)/C=C/[C@H]2[C@@H](C)[C@@H]2/C=C/[C@@H]2O[C@H](CC(=O)O)C[C@H](NC3CCC3)[C@H]2O)CC=C1C [I-jj, (5S,6R)-5-(cyclobutylamino)-6-hydroxypolyangioic acid] | 5.33 | 6.67 | >8 | 1.25 | 2.51 | 5.65 | 3.17 | 8 | 0.125 (≈ 0.237 µM) | 2 (≈ 3.79 µM) | 2 (≈ 3.79 µM) |  |  |  |  |  |  |
| CCC(=O)N[C@H]1C[C@@H](CC(=O)O)O[C@@H](/C=C/[C@H]2[C@H](C)[C@@H]2/C=C/[C@@H](C)/C=C(\C)[C@H]2CC=C(C)[C@@H](CC)O2)[C@@H]1O [I-l, (5S,6R)-5-propionamido-6-hydroxypolyangioic acid] | 16 | 8 | 5.66 | 0.79 | 0.79 | 2.82 | 1.58 | 1.41 |  |  |  |  |  |  |  |  |  |
| CCN[C@H]1C[C@@H](CC(=O)O)O[C@@H](/C=C/[C@H]2[C@H](C)[C@@H]2/C=C/[C@@H](C)/C=C(\C)[C@H]2CC=C(C)[C@@H](CC)O2)[C@@H]1O [I-mm, (5S,6R)-5-(ethylamino)-6-hydroxypolyangioic acid] | 0.93 | 1.28 | 2.82 | 0.79 | 0.79 | 1.41 | 1.25 | 0.7 | 0.125 (≈ 0.249 µM) | 0.25 (≈ 0.498 µM) | 0.0625 (≈ 0.125 µM) | >12.5 | >12.5 | >12.5 | <0.19 | <0.19 |  |
| CC[C@H]1O[C@@H](/C(C)=C/[C@H](C)/C=C/[C@H]2[C@@H](C)[C@@H]2/C=C/[C@@H]2O[C@H](CC(=O)N3CCC3)C[C@H](N(C)C)[C@H]2O)CC=C1C [I-pp, (5S,6R)-1-(azetidin-1-yl)-5-dimethylamino-6-hydroxypolyangi-1-one] | 2 | 4 |  |  |  |  |  |  |  |  |  |  |  |  |  |  | MIC0 Tm ([1]; Trichophyton mentagrophytes (2 strains), 95% growth inhibition): 4 µg/mL; MIC0 Mg (Microsporum gypseum; Microsporum gypseum (3 strains), 95% growth inhibition): 2.51 µg/mL; MIC0 Ti ([2]; Trichophyton interdigitale (3 strains), 95% growth inhibition): 5.03 µg/mL; MIC0 Ef (Epidermophyton floccosum; Epidermophyton floccosum (2 strains), 95% growth inhibition): 2.82 µg/mL; MIC0 Tr (Trichophyton rubrum; Trichophyton rubrum (3 strains), 95% growth inhibition): ¼; MIC0 Mc (Microsporum canis; Microsporum canis (2 strains), 95% growth inhibition): 1 µg/mL |
| C=CCNC(=O)N(C)[C@H]1C[C@@H](CC(=O)O)O[C@@H](/C=C/[C@H]2[C@H](C)[C@@H]2/C=C/[C@@H](C)/C=C(\C)[C@H]2CC=C(C)[C@@H](CC)O2)[C@@H]1O [I-q, (5S,6R)-5-(3-allyl-1-methylureido)-6-hydroxypolyangioic acid] | 32 | 16 | >8 | >8 | 12.69 | >8 | >8 | >8 |  |  |  |  |  |  |  |  |  |
| CCCN(C)[C@H]1C[C@@H](CC(=O)O)O[C@@H](/C=C/[C@H]2[C@H](C)[C@@H]2/C=C/[C@@H](C)/C=C(\C)[C@H]2CC=C(C)[C@@H](CC)O2)[C@@H]1O [I-t, (5S,6R)-5-(N-propyl-methylamino)-6-hydroxypolyangioic acid] | 2.25 | 2.25 | 11.31 | 2 | 1.25 | 1.41 | 1.58 | 2.82 | 0.5 (≈ 0.944 µM) | 1 (≈ 1.89 µM) | 0.5 (≈ 0.944 µM) | >12.5 | >12.5 | >12.5 | <0.19 | <0.19 |  |
| CCCCN(C)[C@H]1C[C@@H](CC(=O)O)O[C@@H](/C=C/[C@H]2[C@H](C)[C@@H]2/C=C/[C@@H](C)/C=C(\C)[C@H]2CC=C(C)[C@@H](CC)O2)[C@@H]1O [I-u, (5S,6R)-5-(N-butyl-methylamino)-6-hydroxypolyangioic acid] | 4.5 | 4.25 | 11.31 | 4 | 3.17 | 2.82 | 3.17 | 5.65 | 1 (≈ 1.84 µM) | 2 (≈ 3.68 µM) | 2 (≈ 3.68 µM) | >12.5 | >12.5 | >12.5 | <0.19 | <0.19 |  |
| CC[C@H]1O[C@@H](/C(C)=C/[C@H](C)/C=C/[C@H]2[C@@H](C)[C@@H]2/C=C/[C@@H]2O[C@H](CC(=O)O)C[C@H](N(C)C)[C@H]2O)CCC1C (stereo partly drawn) [IV-b, 20,21-dihydro ambruticin VS-3] | 0.44 | 0.88 | 4 | 1.25 | 2.51 | 1.41 | 2.51 | 1.41 |  |  |  |  |  |  |  |  |  |
